# According to ChEMBL document CHEMBL3585263, “Novel Octahydropyrrolo[3,4-c]pyrroles Are Selective Orexin-2 Antagonists: SAR Leading to a Clinical Candidate” (J Med Chem, 2015):
# pIC50, pKi: −log10 of the molar value.
# Key:
# [1] = biological target: T1, Orexin/Hypocretin receptor type 1 (Homo sapiens, UniProt O43613); test: Binding affinity to human OX1 receptor
# T1 sequence (O43613 whole entry): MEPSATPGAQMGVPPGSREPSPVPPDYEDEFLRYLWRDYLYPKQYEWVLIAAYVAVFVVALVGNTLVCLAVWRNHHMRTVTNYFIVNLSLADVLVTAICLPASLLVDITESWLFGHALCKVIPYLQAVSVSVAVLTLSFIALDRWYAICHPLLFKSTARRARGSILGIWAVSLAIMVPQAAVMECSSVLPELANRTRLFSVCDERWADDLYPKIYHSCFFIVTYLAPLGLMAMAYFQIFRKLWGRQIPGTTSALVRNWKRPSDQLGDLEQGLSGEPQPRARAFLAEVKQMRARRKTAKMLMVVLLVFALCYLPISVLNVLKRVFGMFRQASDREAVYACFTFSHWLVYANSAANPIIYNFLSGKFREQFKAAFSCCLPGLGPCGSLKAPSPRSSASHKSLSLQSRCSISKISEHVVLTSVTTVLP
# Orexin receptor type 2 [2] = biological target: T2, Orexin receptor type 2 (Homo sapiens, UniProt O43614); test: Binding affinity to human OX2 receptor
# T2 sequence (O43614 whole entry): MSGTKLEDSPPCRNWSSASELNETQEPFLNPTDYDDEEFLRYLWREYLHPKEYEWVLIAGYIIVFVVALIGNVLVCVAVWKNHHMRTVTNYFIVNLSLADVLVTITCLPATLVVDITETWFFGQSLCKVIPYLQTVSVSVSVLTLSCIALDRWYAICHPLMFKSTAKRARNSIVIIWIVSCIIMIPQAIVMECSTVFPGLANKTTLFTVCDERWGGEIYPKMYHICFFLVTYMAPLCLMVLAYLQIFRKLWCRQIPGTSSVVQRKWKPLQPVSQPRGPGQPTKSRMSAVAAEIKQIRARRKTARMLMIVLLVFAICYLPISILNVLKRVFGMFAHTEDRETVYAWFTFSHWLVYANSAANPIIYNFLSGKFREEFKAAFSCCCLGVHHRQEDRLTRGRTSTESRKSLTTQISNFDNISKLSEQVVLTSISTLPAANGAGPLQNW
# Orexin receptor type 2 [3] = biological target: T3, Orexin receptor type 2 (Rattus norvegicus, UniProt P56719); test: Binding affinity to rat OX2 receptor
# T3 sequence (P56719 whole entry): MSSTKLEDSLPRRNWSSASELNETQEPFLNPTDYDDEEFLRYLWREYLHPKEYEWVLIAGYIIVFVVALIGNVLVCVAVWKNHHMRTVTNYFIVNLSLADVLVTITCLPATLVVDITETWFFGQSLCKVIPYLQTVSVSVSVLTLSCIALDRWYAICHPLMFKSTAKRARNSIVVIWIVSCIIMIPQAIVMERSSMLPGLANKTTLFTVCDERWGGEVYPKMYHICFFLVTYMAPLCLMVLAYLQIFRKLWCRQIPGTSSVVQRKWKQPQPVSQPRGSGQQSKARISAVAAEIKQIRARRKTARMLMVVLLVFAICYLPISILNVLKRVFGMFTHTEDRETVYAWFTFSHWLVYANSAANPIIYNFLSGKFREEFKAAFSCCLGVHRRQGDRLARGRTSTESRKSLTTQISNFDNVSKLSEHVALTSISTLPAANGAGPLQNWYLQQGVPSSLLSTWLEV
# [4] = biological target: Voltage-gated inwardly rectifying potassium channel KCNH2 (Homo sapiens, UniProt Q12809); test: Inhibition of [3H]-astemizole binding to human ERG expressed in HEK293 cells
# [5] = Apparent permeability from apical to basolateral side in human Caco2/TC7 cells at 10 uM; conditions: Caco-2
# Cytochrome P450 1A2 = biological target: T4, Cytochrome P450 1A2 (Homo sapiens, UniProt P05177); test: Inhibition of CYP1A2 in human liver microsomes using phenacetin as substrate by LC-MS/MS analysis
# T4 sequence (P05177 whole entry): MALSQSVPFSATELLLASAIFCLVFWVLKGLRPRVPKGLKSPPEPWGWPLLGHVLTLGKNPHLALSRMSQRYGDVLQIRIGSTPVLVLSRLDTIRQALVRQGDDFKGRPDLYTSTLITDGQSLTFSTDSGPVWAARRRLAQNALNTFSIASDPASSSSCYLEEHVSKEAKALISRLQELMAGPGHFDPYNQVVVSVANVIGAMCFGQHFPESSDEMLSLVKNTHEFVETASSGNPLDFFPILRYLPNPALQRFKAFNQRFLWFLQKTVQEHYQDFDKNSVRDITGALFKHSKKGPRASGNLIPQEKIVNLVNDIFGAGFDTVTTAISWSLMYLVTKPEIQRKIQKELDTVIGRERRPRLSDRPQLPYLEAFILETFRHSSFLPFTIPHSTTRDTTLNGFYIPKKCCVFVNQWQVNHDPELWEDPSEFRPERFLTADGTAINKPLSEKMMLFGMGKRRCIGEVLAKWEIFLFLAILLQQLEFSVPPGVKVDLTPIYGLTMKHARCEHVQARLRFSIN
# [6] = Plasma protein binding in rat at 1 uM after 6 hrs by equilibrium dialysis method; format: ADME, cell-free; conditions: read-out: PPB (converted)
# [7] = Apparent permeability from basolateral to apical side in human Caco2/TC7 cells at 10 uM; conditions: Caco-2
# [8] = Plasma protein binding in human at 1 uM after 6 hrs by equilibrium dialysis method; format: ADME, cell-free; conditions: read-out: PPB (converted)
# Rattus norvegicus [9] = test: Ex vivo OX2 receptor occupancy in Sprague-Dawley rat brain at 30 mg/kg, po after 30 mins by autoradiographic analysis; format: functional
# [10] = Volume of distribution at steady state in Sprague-Dawley rat at 10 mg/kg, po and 1 mg/kg, iv; format: ADME, organism-based; conditions: in vivo, read-out: Vdss
# [11] = Half life in Sprague-Dawley rat at 1 mg/kg, iv; format: ADME, organism-based; conditions: in vivo
# [12] = Clearance in Sprague-Dawley rat at 10 mg/kg, po and 1 mg/kg, iv; format: ADME, organism-based; conditions: in vivo
# [13] = Oral bioavailability in Sprague-Dawley rat at 10 mg/kg; format: ADME, organism-based; conditions: in vivo
# Rattus norvegicus [14] = test: Ex vivo OX2 receptor occupancy in Sprague-Dawley rat brain at 10 mg/kg, po after 30 mins by autoradiographic analysis; format: functional
# Rattus norvegicus [15] = test: Ex vivo OX2 receptor occupancy in Sprague-Dawley rat brain at 30 mg/kg, po after 15 mins by autoradiographic analysis; format: functional
# [16] = Metabolic stability in human liver microsomes assessed as extraction ratio at 1 uM measured over 1 hr by LC-MS/MS analysis
# [17] = Metabolic stability in rat liver microsomes assessed as extraction ratio at 1 uM measured over 1 hr by LC-MS/MS analysis
# [18] = Cmax in Sprague-Dawley rat at 10 mg/kg, po; format: ADME, organism-based; design: dose 10 mg/kg, route oral; conditions: in vivo
# [19] = Protein binding in rat brain at 5 uM after 5 hrs by equilibrium dialysis method; format: ADME, tissue-based; conditions: read-out: PB (converted)
# Sequence of Voltage-gated inwardly rectifying potassium channel KCNH2 (Q12809 whole entry): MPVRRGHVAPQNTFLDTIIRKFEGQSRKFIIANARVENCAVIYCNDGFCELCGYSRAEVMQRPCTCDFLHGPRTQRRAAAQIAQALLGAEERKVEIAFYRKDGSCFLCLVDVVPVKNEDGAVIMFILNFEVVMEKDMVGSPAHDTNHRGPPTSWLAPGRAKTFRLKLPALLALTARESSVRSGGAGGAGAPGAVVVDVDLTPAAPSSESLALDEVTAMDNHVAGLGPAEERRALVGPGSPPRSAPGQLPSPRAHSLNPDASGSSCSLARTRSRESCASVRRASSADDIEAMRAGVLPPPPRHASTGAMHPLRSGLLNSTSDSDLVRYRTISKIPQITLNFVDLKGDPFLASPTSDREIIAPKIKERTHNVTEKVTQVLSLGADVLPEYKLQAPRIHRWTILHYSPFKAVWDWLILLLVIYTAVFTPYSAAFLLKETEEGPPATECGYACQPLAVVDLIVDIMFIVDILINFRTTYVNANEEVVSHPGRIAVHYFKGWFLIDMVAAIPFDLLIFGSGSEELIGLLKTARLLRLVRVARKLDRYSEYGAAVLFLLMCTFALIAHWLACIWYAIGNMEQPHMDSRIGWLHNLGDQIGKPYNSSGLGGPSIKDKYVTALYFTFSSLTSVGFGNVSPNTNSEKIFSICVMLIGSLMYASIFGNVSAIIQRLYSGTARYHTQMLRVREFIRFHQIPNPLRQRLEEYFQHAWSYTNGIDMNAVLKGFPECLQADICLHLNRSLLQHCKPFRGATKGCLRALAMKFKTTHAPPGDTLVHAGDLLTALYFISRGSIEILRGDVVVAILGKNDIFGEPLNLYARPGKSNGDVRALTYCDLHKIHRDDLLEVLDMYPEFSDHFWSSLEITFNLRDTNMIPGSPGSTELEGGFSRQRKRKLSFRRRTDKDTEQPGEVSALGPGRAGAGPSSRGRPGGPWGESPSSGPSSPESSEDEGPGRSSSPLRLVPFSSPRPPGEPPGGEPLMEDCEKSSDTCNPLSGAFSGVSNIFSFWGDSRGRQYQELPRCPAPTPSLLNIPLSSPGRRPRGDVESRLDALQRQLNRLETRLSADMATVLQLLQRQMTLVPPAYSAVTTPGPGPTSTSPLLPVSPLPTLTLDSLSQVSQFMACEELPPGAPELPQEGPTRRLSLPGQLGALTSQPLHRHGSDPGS
smiles,measurement,setting,value
COc1cc(OC)nc(N2C[C@H]3CN(C(=O)c4ccccc4-c4cccs4)C[C@H]3C2)n1,pKi,[1],6.59
same,pKi,Orexin receptor type 2 [2],7.39
COc1ccc(-n2nccn2)c(C(=O)N2C[C@@H]3CN(c4nc(C)cc(C)n4)C[C@@H]3C2)c1,pKi,Orexin receptor type 2 [3],7.42
same,pIC50,[4],5.09
O=C(c1ccccc1-c1ccccc1)N1C[C@@H]2CN(c3cnc4ccccc4n3)C[C@@H]2C1,pKi,[1],5.88
same,pKi,Orexin receptor type 2 [2],6.62
O=C(c1ccccc1-c1ccccc1)N1C[C@@H]2CN(c3nc4ccccc4s3)C[C@@H]2C1,pKi,[1],5.85
same,pKi,Orexin receptor type 2 [2],6.16
COc1ccnc(N2C[C@H]3CN(C(=O)c4c(C)ccc5ccccc45)C[C@H]3C2)n1,pKi,[1],5.48
same,pKi,Orexin receptor type 2 [2],6.85
Cc1cc(C)nc(N2C[C@H]3CN(C(=O)c4c(C)cccc4-n4nccn4)C[C@H]3C2)n1,pKi,Orexin receptor type 2 [3],7.92
same,pIC50,[4],5.16
Cc1cc(C)nc(N2C[C@H]3CN(C(=O)c4c(C)ccc5ccccc45)C[C@H]3C2)n1,pKi,[1],5.74
same,pKi,Orexin receptor type 2 [2],7.29
COc1ccc(C(=O)N2C[C@@H]3CN(c4nc5ccc(Cl)cc5s4)C[C@@H]3C2)c(OC)c1,pKi,[1],5.28
same,pKi,Orexin receptor type 2 [2],6.29
Cc1cc(C)nc(N2C[C@H]3CN(C(=O)c4cc(F)ccc4-n4nccn4)C[C@H]3C2)n1,pIC50,[4],< 5.00
O=C(c1ccccc1-c1ccccc1)N1C[C@@H]2CN(c3nccc(-c4ccccc4)n3)C[C@@H]2C1,pKi,[1],6.12
same,pKi,Orexin receptor type 2 [2],6.38
COc1ccc(C(=O)N2C[C@@H]3CN(c4nc5ccc(C)cc5s4)C[C@@H]3C2)c(OC)c1,pKi,[1],< 5.00
same,pKi,Orexin receptor type 2 [2],6.17
Cc1cc(C)nc(N2C[C@H]3CN(C(=O)c4ccccc4-c4cccc(F)c4)C[C@H]3C2)n1,pKi,[1],< 5.00
same,pKi,Orexin receptor type 2 [2],6.74
O=C(c1ccccc1-c1cccs1)N1C[C@@H]2CN(c3nc4ccc(F)cc4s3)C[C@@H]2C1,pKi,[1],6.57
same,pKi,Orexin receptor type 2 [2],6.86
COc1ccc(C(=O)N2C[C@@H]3CN(c4nc5ccc(OC)cc5s4)C[C@@H]3C2)c(OC)c1,pKi,[1],< 5.00
same,pKi,Orexin receptor type 2 [2],6.06
O=C(c1ccccc1-c1cccs1)N1C[C@@H]2CN(c3cnc4ccccc4n3)C[C@@H]2C1,pKi,[1],6.21
same,pKi,Orexin receptor type 2 [2],6.97
Cc1cc(C)nc(N2C[C@H]3CN(C(=O)c4ccc(F)cc4-n4nccn4)C[C@H]3C2)n1,Papp A→B at 10 µM,[5],58.1 ×10⁻⁶ cm/s
same,pIC50,Cytochrome P450 1A2,5.03
same,"fraction unbound at 6 h, 1 µM",[6],0.116
same,pKi,Orexin receptor type 2 [3],7.85
same,Papp B→A at 10 µM,[7],26.8 ×10⁻⁶ cm/s
same,"fraction unbound at 6 h, 1 µM",[8],0.075
same,Occ,Rattus norvegicus [9],72%
same,Vd,[10],1.5 L/kg
same,half-life,[11],22.2 min
same,clearance,[12],65.5 mL/min/kg
same,pIC50,[4],< 5.00
same,bioavailability,[13],18%
COc1ccc(C(=O)N2C[C@@H]3CN(c4nc5ccc(F)cc5s4)C[C@@H]3C2)c(OC)c1,pKi,[1],< 5.00
same,pKi,Orexin receptor type 2 [2],6.13
Cc1cc(C)nc(N2C[C@H]3CN(C(=O)c4ccccc4-c4cccs4)C[C@H]3C2)n1,pKi,Orexin receptor type 2 [3],8.15
same,pKi,[1],6.33
same,Occ,Rattus norvegicus [14],26%
same,pKi,Orexin receptor type 2 [2],8.01
Cc1cc(C)nc(N2C[C@H]3CN(C(=O)c4ccccc4-c4ncn[nH]4)C[C@H]3C2)n1,Occ,Rattus norvegicus [15],0%
same,pKi,Orexin receptor type 2 [3],7.41
same,"hepatic extraction ratio at 1 h, 1 µM",[16],0.73
same,pKi,[1],5.44
same,Vd,[10],3.9 L/kg
same,half-life,[11],22.8 min
same,clearance,[12],150 mL/min/kg
same,pIC50,[4],< 5.00
same,pKi,Orexin receptor type 2 [2],7.52
same,bioavailability,[13],22%
same,"hepatic extraction ratio at 1 h, 1 µM",[17],0.51
O=C(c1ccccc1-n1cccn1)N1C[C@@H]2CN(c3cnc4ccccc4n3)C[C@@H]2C1,pKi,[1],< 5.00
same,pKi,Orexin receptor type 2 [2],6.11
Cc1cc(C)nc(N2C[C@H]3CN(C(=O)c4ccccc4-n4nccn4)C[C@H]3C2)n1,pKi,Orexin receptor type 2 [3],8.70
same,Cmax,[18],148 ng/mL
same,Occ,Rattus norvegicus [9],67%
same,Vd,[10],0.7 L/kg
same,half-life,[11],16.2 min
same,clearance,[12],52.1 mL/min/kg
same,pIC50,[4],< 5.00
same,bioavailability,[13],8%
Cc1cc(C)nc(N2C[C@H]3CN(C(=O)c4cccc(F)c4-n4nccn4)C[C@H]3C2)n1,Papp A→B at 10 µM,[5],62.3 ×10⁻⁶ cm/s
same,pIC50,Cytochrome P450 1A2,5.51
same,"fraction unbound at 6 h, 1 µM",[6],0.273
same,Occ,Rattus norvegicus [15],49%
same,Papp B→A at 10 µM,[7],49.7 ×10⁻⁶ cm/s
same,"fraction unbound at 6 h, 1 µM",[8],0.095
same,Vd,[10],0.7 L/kg
same,half-life,[11],12 min
same,clearance,[12],57 mL/min/kg
same,"fraction unbound at 5 h, 5 µM",[19],0.156
same,pIC50,[4],5.22
same,bioavailability,[13],21%
O=C(c1ccccc1-c1ccccc1)N1C[C@@H]2CN(c3nc4ccc(F)cc4s3)C[C@@H]2C1,pKi,[1],6.03
same,pKi,Orexin receptor type 2 [2],6.53
CCOc1ccc2ccccc2c1C(=O)N1C[C@@H]2CN(c3nc(C)cc(C)n3)C[C@@H]2C1,pKi,[1],6.25
same,pKi,Orexin receptor type 2 [2],7.57
Cc1ccnc(N2C[C@H]3CN(C(=O)c4ccccc4-c4ccccc4)C[C@H]3C2)n1,pKi,[1],< 5.00
same,pKi,Orexin receptor type 2 [2],6.05
